Results on seven compounds are retold here after patent US6884821B1, “Carboxylic acid derivatives and drugs containing the same” (Eisai Co., Ltd., priority 1999, dated 2005).

Read-outs that look alike come from different tables or passages of the source.

For orientation: EC50 means the concentration at which the effect is half-maximal.

For assay [1], the target named is T1, human PPARγ (Homo sapiens, UniProt P37231).
T1 construct: human PPAR 167-468 (PPARα), 138-440 (NUC-1) and 174-475 (PPARY) amino acid regions; expressed in transfected cells; host or cells: CV-1 (ATCC CCL-70D)
T1 sequence (P37231 204-505): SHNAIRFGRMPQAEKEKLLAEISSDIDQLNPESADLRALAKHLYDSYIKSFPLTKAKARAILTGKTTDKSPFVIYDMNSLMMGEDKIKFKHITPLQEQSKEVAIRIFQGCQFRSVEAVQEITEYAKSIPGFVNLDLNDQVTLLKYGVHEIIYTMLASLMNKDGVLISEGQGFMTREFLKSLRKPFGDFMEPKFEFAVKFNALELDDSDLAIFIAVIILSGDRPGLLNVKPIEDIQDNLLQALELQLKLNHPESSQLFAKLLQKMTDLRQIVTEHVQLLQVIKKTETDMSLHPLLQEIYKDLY
As to the kind of experiment: Measurement of transcriptional activity (GAL4-PPAR LBD chimera, PLAP reporter, CV-1 cells). Format: cell-based. The settings on record: PLAP activity 24 hours after addition of the compound, read-out: Transcriptional activities EC50 PRAR γ. The procedure:
(§1) Measurement of Transcriptional Activity
(§2) As the reporter gene, PLAP (Placental Alkaline Phosphatase) was used, and this was ligated downstream of a TK promoter containing a 5-copy GAL4 DNA binding element to construct a vector. As host cells, CV-1 (ATCC CCL-70D) was used. That is, CV-1 cells were spread at a density of 5×10^5 cells on a 35-mm dish and cultured in 10% FCS/DMEM for 24 hours, and using FuGENE 6 transfection reagent, the cells were co-transfected with the GAL4-PPAR LBD expression vector and GAL4 DBD-TK-PLAP expression vector. 24 hours after this transfection, the cells were spread again on a 96-well plate at a density of 1×10^4/well and further cultured for 24 hours. After 24 hours, the medium was exchanged with DMEM containing 10% FCS, which was previously treated at 65° C. for inactivating intrinsic alkaline phosphatase, and a test compound was added at an arbitrary concentration. […] The […] was determined after adding 50 μl assay buffer and 50 μl chemoluminescence substrate to 10 μl culture supernatant and incubating the mixture at room temperature for 1 hour.

For assay [2], the target named is T2, human PPARα (Homo sapiens, UniProt Q07869).
T2 construct: human PPAR 167-468 (PPARα), 138-440 (NUC-1) and 174-475 (PPARY) amino acid regions; expressed in transfected cells; host or cells: CV-1 (ATCC CCL-70D)
T2 sequence (Q07869 167-468): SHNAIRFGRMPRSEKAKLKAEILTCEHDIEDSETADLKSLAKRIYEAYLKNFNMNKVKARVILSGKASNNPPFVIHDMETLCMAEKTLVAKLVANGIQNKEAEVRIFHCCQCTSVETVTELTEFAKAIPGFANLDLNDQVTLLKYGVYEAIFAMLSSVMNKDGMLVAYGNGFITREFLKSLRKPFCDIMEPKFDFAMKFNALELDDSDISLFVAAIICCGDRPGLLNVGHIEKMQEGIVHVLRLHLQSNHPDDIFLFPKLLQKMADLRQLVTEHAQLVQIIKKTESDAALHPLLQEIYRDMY
The assay is described as above. Format: cell-based. The method, then: as §1, §2

Assay [3] has as its target T3, human PPARβ (NUC-1) (Homo sapiens, UniProt Q03181).
T3 construct: human PPAR 167-468 (PPARα), 138-440 (NUC-1) and 174-475 (PPARY) amino acid regions; expressed in transfected cells; host or cells: CV-1 (ATCC CCL-70D)
T3 sequence (Q03181 138-440): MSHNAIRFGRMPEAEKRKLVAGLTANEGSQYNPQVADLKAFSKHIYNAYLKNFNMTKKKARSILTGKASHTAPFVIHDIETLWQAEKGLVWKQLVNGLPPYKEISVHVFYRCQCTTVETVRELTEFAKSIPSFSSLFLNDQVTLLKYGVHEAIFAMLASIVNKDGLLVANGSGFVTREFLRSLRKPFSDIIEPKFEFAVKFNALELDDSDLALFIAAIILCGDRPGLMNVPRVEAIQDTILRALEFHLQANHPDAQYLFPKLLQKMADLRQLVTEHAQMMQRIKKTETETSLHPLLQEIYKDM
The description is as above. The assay is classed as cell-based. The procedure: as §1, §2

Assay [4] relates to male db/db mice. As to the kind of experiment: Measurement of blood sugar reduction, blood triglyceride reduction and blood free fatty acid reduction in db/db mice. The settings on record: in vivo db/db mice, day 9 after administration, oral once a day. The method, then: Measurement of Blood Sugar Reduction, Blood Triglyceride Reduction and Blood Free Fatty Acid Reduction
Blood, was collected through a tail vein after the mice were fasted for 1 hour, before administration, and on Day 4 and Day 9 after administration, respectively. On Day 10, an oral glucose loading test was conducted; in this test, the mice were fasted overnight from the previous day, and in the next morning, 2 g/kg glucose was given to the mice. Plasma glucose, triglycerides (TG), free fatty acid (NEFA) were measured by using commercial kits, that is, Glucose C-II Test Wako (trade name) (Wako Pure Chemical Industries, Ltd., Tokyo), Deteminer L TG II (trade name) (Kyowa Medex, Tokyo) and NEFA C-Test Wako (Wako Pure Chemical Industries, Ltd., Tokyo), respectively.

Setting [5] is: CV-1 cells, GAL4-PPAR LBD chimera, PLAP activity 24 hours after addition of the compound, read-out: Transcriptional activities EC50 PRAR α.
Where [6] appears, read: CV-1 cells, GAL4-PPAR LBD chimera, PLAP activity 24 hours after addition of the compound, read-out: Transcriptional activities EC50 PRAR β.

`COc1ccc(CC(OC(C)C)C(=O)O)cc1C(=O)NCc1ccc(C(F)(F)F)cc1` (centres unmarked) [Example 2d), 2-Isopropoxy-3-(4-methoxy-3-({[4-(trifluoromethyl)benzyl]amino}carbonyl)phenyl)propanoic acid]: the EC50 in assay [1] stood at 382 nM; in assay [2] (setting [5]), 80 nM; in assay [3] (setting [6]), 2510 nM. Further, the “Blood free fatty acid reduction (%)” value in assay [4] (30 mg/kg/day) stood at 46.7%. Besides, the “Blood sugar reduction (%)” value in assay [4] (30 mg/kg/day) is given as 44.6%. For the same compound, the “Blood triglycerides reduction (%)” value in assay [4] (30 mg/kg/day) is on record as 71.6%.
On to `COc1ccc(CC(OC(C)(C)C)C(=O)O)cc1C(=O)NCc1ccc(C(F)(F)F)cc1` (centres unmarked) [Example 3d), 2-tert-Butoxy-3-(4-methoxy-3-({[4-(trifluoromethyl)benzyl]amino}carbonyl)phenyl)propanoic acid], for which the EC50 in assay [1] was 217 nM; in assay [2] (setting [5]), 87 nM; in assay [3] (setting [6]), 5070 nM. Also, the “Blood free fatty acid reduction (%)” value in assay [4] (30 mg/kg/day) was determined as 47%. Also, the “Blood sugar reduction (%)” value in assay [4] (30 mg/kg/day) is 27.5%. Moreover, the “Blood triglycerides reduction (%)” value in assay [4] (30 mg/kg/day) is recorded as 63.8%.
`CCC(Cc1ccc(OC)c(C(=O)NCc2ccc(C(F)(F)F)cc2)c1)C(=O)O` (centres unmarked) [Example 5d), 2-[4-Methoxy-3-({[4-(trifluoromethyl)benzyl]amino}carbonyl)benzyl)butanoic acid] registered an EC50 in assay [2] of 394 nM. The same compound showed a concentration for a half-maximal effect (EC50) in assay [3] of 789 nM. For the same compound, in assay [4] (30 mg/kg/day), the “Blood free fatty acid reduction (%)” value is recorded as 65.5%, the “Blood sugar reduction (%)” value was 53.6% and the “Blood triglycerides reduction (%)” value is recorded as 58.8%.
With `CCCOC(Cc1ccc(OC)c(C(=O)NCc2ccc(C(F)(F)F)cc2)c1)C(=O)O` (centres unmarked) [Example 9d), 3-[4-methoxy-3-({[4-(trifluoromethyl)benzyl]amino}carbonyl)phenyl]-2-propoxypropanoic acid], the EC50 in assay [1] was 746 nM. Also, in assay [2] (setting [5]), the EC50 stood at 701 nM. Besides, the EC50 in assay [3] (setting [6]) is above 30000 nM. Further, in assay [4] (30 mg/kg/day), the “Blood free fatty acid reduction (%)” value is reported as 62.9%, the “Blood sugar reduction (%)” value was 46.1% and the “Blood triglycerides reduction (%)” value is reported as 80.4%.
Take `CCC(Cc1ccc(OC)c(NC(=O)Cc2ccc(C(F)(F)F)c(F)c2)c1)C(=O)O` (centres unmarked) [Example 18d), 2-(4-Methoxy-3-{[2-(3-fluoro-4-trifluoromethylphenyl)acetyl]amino}benzyl)butanoic acid]: the EC50 in assay [1] was above 10000 nM; in assay [2] (setting [5]) it was 162 nM; in assay [3] (setting [6]), 8050 nM.
Regarding `COc1ccc(C[C@H](OC(C)C)C(=O)O)cc1CNC(=O)c1ccc(C(F)(F)F)cc1F` [Example 36g), (2S)-3-[3-([2-fluoro-4-(trifluoromethyl)benzoyl]aminomethyl)-4-methoxyphenyl]-2-isopropoxypropanoic acid], the EC50 in assay [1] stood at 47 nM; in assay [2] (setting [5]), 12 nM; in assay [3] (setting [6]), 37 nM. Moreover, the “Blood free fatty acid reduction (%)” value in assay [4] (1 mg/kg/day (*)) is recorded as 54.0%. Further, the “Blood sugar reduction (%)” value in assay [4] (1 mg/kg/day (*)) was determined as 51.5%. In assay [4] (1 mg/kg/day (*)), the “Blood triglycerides reduction (%)” value is reported as 55.2%.
`COc1ccc(C[C@H](OC(C)C)C(=O)O)cc1CNC(=O)c1ccc(Cl)cc1Cl` [Example 37e), (2S)-3-[3-([2,4-dichlorobenzoyl]aminomethyl)-4-methoxyphenyl]-2-isopropoxypropanoic acid]: the EC50 in assay [1] turned out to be 16 nM. Besides, the concentration for a half-maximal effect (EC50) in assay [2] (setting [5]) worked out at 28 nM. The EC50 in assay [3] (setting [6]) stood at 432 nM. Besides, in assay [4] (1 mg/kg/day (*)), the “Blood free fatty acid reduction (%)” value came out at 70.2%, the “Blood sugar reduction (%)” value is reported as 48.1% and the “Blood triglycerides reduction (%)” value is 68.3%.
